The results in this text go back to article PMC4534092, “Novel Penicillin Analogues as Potential Antimicrobial Agents; Design, Synthesis and Docking Studies” (PLoS ONE, 2015).

The experiment concerns the target MurC (UDP-N-acetylmuramic acid:L-alanine ligase) (Escherichia coli, UniProt P17952). In words: Malachite green phosphate detection enzyme assay with […] MurC. It is filed as biochemical.

Sequence of MurC (UDP-N-acetylmuramic acid:L-alanine ligase) (P17952 whole entry): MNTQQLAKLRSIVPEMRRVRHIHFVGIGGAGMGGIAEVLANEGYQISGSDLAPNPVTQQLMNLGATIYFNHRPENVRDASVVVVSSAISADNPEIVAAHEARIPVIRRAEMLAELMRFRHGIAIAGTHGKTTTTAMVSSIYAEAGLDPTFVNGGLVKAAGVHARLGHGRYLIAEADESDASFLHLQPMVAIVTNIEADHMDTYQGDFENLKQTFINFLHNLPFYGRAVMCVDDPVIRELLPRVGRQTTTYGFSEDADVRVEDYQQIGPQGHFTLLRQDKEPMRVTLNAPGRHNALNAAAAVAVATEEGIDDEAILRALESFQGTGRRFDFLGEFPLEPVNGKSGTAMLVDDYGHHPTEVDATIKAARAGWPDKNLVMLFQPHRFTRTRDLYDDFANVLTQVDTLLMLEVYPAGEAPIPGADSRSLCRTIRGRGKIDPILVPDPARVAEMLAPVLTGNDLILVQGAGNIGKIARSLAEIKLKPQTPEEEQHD

A word on the IC50: it is the point on the concentration scale where inhibition reaches its midpoint. Low values mean greater potency, high ones weaker potency. `COc1ccc2cc(C(C)C(=O)NC3C(=O)N4C3SC(C)(C)C4C(=O)O)ccc2c1` [4e, (2S,5R,6S)-6-(3'-(11'-methoxynaphthalen-5'-yl)propanamido)-3,3-dimethyl-7-oxo-4-thia-1-azabicyclo[3.2.0]heptane-2-carboxylic acid]: it took 12.5 µM to reach half-maximal inhibition (IC50).

For `Nc1ncnc2c1ncn2[C@@H]1O[C@H](COP(=O)(O)OP(=O)(O)CP(=O)(O)O)[C@@H](O)[C@H]1O` [AMP-PCP], the IC50 was 17 µM.
